According to patent US6391878B2, “Guanidinyl heterocycle compounds useful as alpha-2 adrenoceptor agonists” (The Procter & Gamble Company, priority 1996, dated 2002):

How the values were obtained:
[1] = system: patient with nasal congestion; experiment: Composition given to a patient with nasal congestion; type: in vivo, human
Method: One tablet is swallowed by a patient with nasal congestion.
One tablet is chewed and swallowed by a patient with nasal congestion.
One tablet is placed under the tongue of a patient with nasal congestion and allowed to dissolve.
One-tenth of a mL of the composition is sprayed from a pump actuator into each nostril of a patient with nasal congestion.
One-fifth of a mL of the composition is applied as drops from a dropper into each nostril of a patient with riasal congestion.
One 15 mL dose of the alcohol-free liquid medication is swallowed by a patient with nasal congestion.

[2] = system: patient with nasal congestion and runny nose due to allergic rhinitis; experiment: Oral liquid given to a patient with nasal congestion and runny nose due to allergic rhinitis; type: in vivo, human; conditions: Example H oral liquid, 15 mg per 15 mL dose, with chlorpheniramine maleate 4 mg, one dose swallowed
Method: One 15 mL dose of the liquid composition is swallowed by a patient with nasal congestion and runny nose due to allergic rhinitis.

[3] = system: patient with glaucoma; experiment: Topical ophthalmic composition given to a patient with glaucoma, intraocular pressure; type: in vivo, human; conditions: Example G topical ophthalmic composition 0.10 % w/v, one-tenth of a mL into each eye
Method: One-tenth of a mL of the composition is administered directly into each eye of a patient with glaucoma.

[4] = system: patient with migraine; experiment: Oral tablet given to a patient with migraine; type: in vivo, human; conditions: Example K oral tablet, 4 mg per tablet, one tablet swallowed
Description: One tablet is swallowed by a patient with migraine.

[5] = system: human subject suffering from septic or cardiogenic shock; experiment: Intravenous solution given to a human subject suffering from septic or cardiogenic shock; type: in vivo; conditions: Example T parenteral solution 10 mg/ml carrier, approximately 2.0 ml intravenously
Method: The above ingredients are mixed, forming a solution. Approximately 2.0 ml of the solution is administered, intravenously, to a human subject suffering from septic or cardiogenic shock. The symptoms subside.

[6] = system: patient with asthma; experiment: Inhalation aerosol given to a patient with asthma; type: in vivo, human; conditions: Example F inhalation aerosol 5.0 % w/v, two puffs from a metered-dose inhaler
Description: Two-puffs of the aerosol composition is inhaled from a metered-dose inhaler by a patient with asthma.

Cc1c(NC(=N)N)ccc2c1ncn2C [Subject Compound 4, (1,4-Dimethylbenzimidazol-5-yl)quanidine]
nasal congestion ([1]; Example A oral tablet, 20.0 mg per tablet, one tablet swallowed): substantially diminished | congestion and runny nose [2]: effectively reduced

Cc1nc2c(C)c(NC(=N)N)ccc2[nH]1 [Subject Compound 3, (2,4-Dimethylbenzimidazol-5-yl)quanidine]
nasal congestion ([1]; Example D intranasal solution 0.20 % w/v, one-tenth of a mL sprayed into each nostril): substantially diminished

N=C(N)Nc1ccc2nc[nH]c2c1Br [Subject Compound 5, (4-Bromobenzimidazol-5-yl)guanidine]
nasal congestion ([1]; Example C sublingual tablet, 2.00 mg per tablet, dissolved under the tongue): rapidly and substantially diminished | intraocular pressure [3]: substantially reduced

Cc1c(NC(=N)N)ccc2nc[nH]c12 [Subject Compound 1, (4-Methylbenzimidazol-5-yl)guanidine]
nasal congestion ([1]; Example B chewable tablet, 15.0 mg per tablet, one tablet chewed and swallowed): substantially reduced | nasal congestion ([1]; Example E intranasal gel 0.10 % w/v, one-fifth of a mL as drops into each nostril): substantially reduced | pain and aura of migraine [4]: substantially diminished | symptoms of septic or cardiogenic shock [5]: subside

Cc1cc(NC(=N)N)c(C)c2[nH]cnc12 [Subject Compound 2, (4,7-Dimethylbenzimidazol-5-yl)guanidine]
nasal congestion ([1]; Example J alcohol-free oral liquid, 30 mg per 15 mL dose, one dose swallowed): substantially diminished | asthmatic condition [6]: effectively relieved
